Laboratory results published in patent publication US12384801B2, “Benzothiophene, thienopyridine and thienopyrimidine derivatives for the modulation of sting” (CTXT PTY LTD, priority 2019, dated 2025).

What was measured:
[1] = target: human HAQ isoform of STING (Homo sapiens (Human), UniProt Q86WV6, G230A/H232R/R293Q/R71H); test: THP-1 STING Lucia ISG reporter cell line assay; format: cell-based; details: 24 h incubation, luminescence, normalized to ML RR-S2 CDA 40 μM; read-out: EC50 THP-I STING Lucia ISG cells
Sequence of human HAQ isoform of STING (Q86WV6 whole entry R71H/G230A/H232R/R293Q, canonical isoform): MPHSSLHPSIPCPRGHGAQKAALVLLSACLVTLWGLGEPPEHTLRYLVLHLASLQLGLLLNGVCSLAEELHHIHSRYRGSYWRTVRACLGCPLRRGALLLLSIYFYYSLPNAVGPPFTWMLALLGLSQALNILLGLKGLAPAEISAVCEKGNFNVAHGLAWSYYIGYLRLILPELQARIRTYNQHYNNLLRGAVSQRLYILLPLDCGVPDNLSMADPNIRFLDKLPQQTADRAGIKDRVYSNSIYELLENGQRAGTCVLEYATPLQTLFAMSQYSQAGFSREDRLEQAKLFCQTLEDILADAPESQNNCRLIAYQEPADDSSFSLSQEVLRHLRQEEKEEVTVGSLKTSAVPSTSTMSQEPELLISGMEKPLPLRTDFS
Description: (§1) THP-1 STING Lucia ISG cells (InvivoGen #thpl-isg) were cultured in RPMI-1640 containing 2 mM L-glutamine, 25 mM HEPES, 100 μg/mL Normocin (InvivoGen) and 10% heat-inactivated FBS. Cells were seeded at a density of 7×10^5 cells/mL, maintained at 37° C./5% CO2, and passaged every 3-4 days. Selection pressure was maintained by the addition of 100 μg/mL Zeocin every second passage.
(§2) Assay conditions: cells were harvested and resuspended at a concentration of 5×10^5 cells/mL in fresh growth media. Of this cell preparation 20 μL per well was dispensed into 384 well cell culture plates (Greiner, #781098X) and incubated at 37° C./5% CO2 for 2 hours.
(§3) Concentration Response Curves (commonly 11 doses) were prepared by 2.5 fold serial dilution starting from 10 mM compound stock solution in DMSO. Compound dilutions were transferred into the cell culture plates using a pintool (0.1 μL transfer), control wells were matched for DMSO. Positive control wells received ML RR-S2 CDA (Med Chem Express HY12885B) in 5 μL of media to a final concentration of 40 μM. All other wells received additional 5 μL of media only to equalize volume. The plates were incubated for 24 h at 37° C./5% CO2.
(§4) For the detection step, QUANTI-Luc (InvivoGen #rep-qlc1) was prepared according to manufacturer's instruction and 10 μL were added per well to the culture plates. Plates were shaken for ten seconds on an orbital shaker and left in the dark at room temperature for two minutes, before luminescence was read on a Perkin Elmer Envision plate reader.
(§5) Data analysis: Luminescence raw data was normalized % activity relative to the signal of the positive control wells and negative control wells which were not treated with compound. The following formula was used to calculate normalized % activity from raw signals: % activity=(sample−negative)/(positive−negative)
(§6) The THP-1 STING Lucia ISG cell EC50 provides an assessment of activity at the human HAQ isoform of STING. For assessing compound activity against the WT human STING isoform, an equivalent method was conducted where the cells used were THP-1-Dual KI-hSTING-R232 (InvivoGen #thpd-r232).

WT human STING isoform = WT human STING isoform (Homo sapiens (Human), UniProt Q86WV6, H232R); test: THP-1-Dual KI-hSTING-R232 reporter cell line assay; format: cell-based; details: 24 h incubation, luminescence, normalized to ML RR-S2 CDA 40 μM; read-out: EC50 THP-1 Dual KI-hSTING-R232 cells
Sequence of WT human STING isoform (Q86WV6 whole entry H232R, canonical isoform): as the sequence (Q86WV6 whole entry R71H/G230A/H232R/R293Q, canonical isoform) above, with H71R, A230G, Q293R counted along it
Description: as §1, §2, §3, §4, §5, §6

human STING (WT) = human STING (WT) (Homo sapiens (Human), UniProt Q86WV6, H232R); test: Differential scanning fluorimetry (DSF), huSTING (WT); format: binding; details: compound 100 μM, 2 μM protein, Tm with ligand minus Tm of protein alone (1% DMSO)
Sequence of human STING (WT) (Q86WV6 149-345 H232R): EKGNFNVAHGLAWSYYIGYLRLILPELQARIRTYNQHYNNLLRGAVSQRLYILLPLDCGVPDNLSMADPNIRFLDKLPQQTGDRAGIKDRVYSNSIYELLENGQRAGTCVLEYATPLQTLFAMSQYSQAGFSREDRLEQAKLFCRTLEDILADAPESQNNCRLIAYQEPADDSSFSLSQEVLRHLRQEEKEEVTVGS
Description: (§7) Data were analyzed using “Meltdown analysis” protocol described by Rosa (2015).

human STING (HAQ) = human STING (HAQ) (Homo sapiens (Human), UniProt Q86WV6, G230A/H232R/R293Q); test: Differential scanning fluorimetry (DSF), huSTING (HAQ); format: binding; details: compound 100 μM, 2 μM protein, Tm with ligand minus Tm of protein alone (1% DMSO)
Sequence of human STING (HAQ) (Q86WV6 149-345 G230A/H232R/R293Q): as the sequence (Q86WV6 149-345 H232R) above, with G82A, R145Q counted along it
Description: as §7

SMILES | EC50 [1] [µM] | EC50 (WT human STING isoform) [µM] | DSF huSTING (WT) ΔTm (human STING (WT)) [°C] | DSF huSTING (HAQ) ΔTm (human STING (HAQ)) [°C] | ΔTm at 100 µM (human STING (WT)) [°C] | ΔTm at 100 µM (human STING (HAQ)) [°C]
CCOC(=O)c1sc2cccc(C(F)(F)F)c2c1-c1nc2cc(C(N)=O)ccc2n1CCn1c(-c2c(C(=O)OCC)sc3cccc(C(F)(F)F)c23)nc2cc(C(N)=O)ccc21 [Example 18, Diethyl 3,3′-(ethane-1,2-diylbis(5-carbamoyl-1H-benzo[d]imidazole-1,2-diyl))bis(4-(trifluoromethyl)benzo[b]thiophene-2-carboxylate)] | 3.74 | > 40 |  |  |  | 
NC(=O)c1ccc2c(c1)nc(-c1c(C(=O)O)sc3cccc(Cl)c13)n2CCn1c(-c2c(C(=O)O)sc3cccc(Cl)c23)nc2cc(C(N)=O)ccc21 (single isomer, unassigned) [Example 1.2, 3,3′-(Ethane-1,2-diylbis(5-carbamoyl-1H-benzo[d]imidazole-1,2-diyl))bis(4-chlorobenzo[b]thiophene-2-carboxylic acid)] | 14.2 | 6.33 | −7.14 | 0.13 |  | 
CCOC(=O)c1sc2cccc(C)c2c1-c1nc2cc(C(N)=O)ccc2n1CCn1c(-c2c(C(=O)OCC)sc3cccc(C)c23)nc2cc(C(N)=O)ccc21 [Example 14, Diethyl 3,3′-(1,1′-(ethane-1,2-diyl)bis(5-carbamoyl-1H-benzo[d]imidazole-2,1-diyl))bis(4-methylbenzo[b]thiophene-2-carboxylate)] | > 40 | > 40 |  |  |  | 
CCOC(=O)c1sc2c(F)ccc(OC)c2c1-c1nc2cc(C(N)=O)ccc2n1CCn1c(-c2c(C(=O)OCC)sc3c(F)ccc(OC)c23)nc2cc(C(N)=O)ccc21 [Example 12, Diethyl 3,3′-(ethane-1,2-diylbis(5-carbamoyl-1H-benzo[d]imidazole-1,2-diyl))bis(7-fluoro-4-methoxybenzo[b]thiophene-2-carboxylate)] | 5.08 | 9.18 |  |  |  | 
CCOC(=O)c1sc2ccnc(OC)c2c1-c1nc2cc(C(N)=O)ccc2n1CCn1c(-c2c(C(=O)OCC)sc3ccnc(OC)c23)nc2cc(C(N)=O)ccc21 [Example 6, Diethyl 3,3′-(ethane-1,2-diylbis(5-carbamoyl-1H-benzo[d]imidazole-1,2-diyl))bis(4-methoxythieno[3,2-c]pyridine-2-carboxylate)] | > 40 | > 40 |  |  |  | 
CCOC(=O)c1sc2cccc(Br)c2c1-c1nc2cc(C(N)=O)ccc2n1CCn1c(-c2c(C(=O)OCC)sc3cccc(Br)c23)nc2cc(C(N)=O)ccc21 [Example 10, Diethyl 3,3′-(ethane-1,2-diylbis(5-carbamoyl-1H-benzo[d]imidazole-1,2-diyl))bis(4-bromobenzo[b]thiophene-2-carboxylate)] | 19.9 | 12.7 |  |  |  | 
CCOC(=O)c1sc2ccccc2c1-c1nc2cc(C(N)=O)ccc2n1CCn1c(-c2c(C(=O)OCC)sc3ccccc23)nc2cc(C(N)=O)ccc21 [Example 8, Diethyl 3,3′-(ethane-1,2-diylbis(5-carbamoyl-1H-benzo[d]imidazole-1,2-diyl))bis(benzo[b]thiophene-2-carboxylate)] | > 40 | > 40 |  |  |  | 
NC(=O)c1ccc2c(c1)nc(-c1c(C(=O)O)sc3c(F)ccc(Br)c13)n2CCn1c(-c2c(C(=O)O)sc3c(F)ccc(Br)c23)nc2cc(C(N)=O)ccc21 (single isomer, unassigned) [Example 20.2, 3,3′-(Ethane-1,2-diylbis(5-carbamoyl-1H-benzo[d]imidazole-1,2-diyl))bis(4-bromo-7-fluorobenzo[b]thiophene-2-carboxylic acid)] | 14.7 | 5.81 | −4.12 | 0.44 |  | 
CCOC(=O)c1sc2c(F)ccc(Cl)c2c1-c1nc2cc(C(N)=O)ccc2n1CCn1c(-c2c(C(=O)OCC)sc3c(F)ccc(Cl)c23)nc2cc(C(N)=O)ccc21 [Example A2, Diethyl 3,3′-(ethane-1,2-diylbis(5-carbamoyl-1H-benzo[d]imidazole-1,2-diyl))bis(4-chloro-7-fluorobenzo[b]thiophene-2-carboxylate)] | 9.53 | 3.17 |  |  |  | 
CCOC(=O)c1sc2cccc(OCC)c2c1-c1nc2cc(C(N)=O)ccc2n1CCn1c(-c2c(C(=O)OCC)sc3cccc(OCC)c23)nc2cc(C(N)=O)ccc21 [Example 23, Diethyl 3,3′-(ethane-1,2-diylbis(5-carbamoyl-1H-benzo[d]imidazole-1,2-diyl))bis(4-ethoxybenzo[b]thiophene-2-carboxylate)] | > 40 | > 40 |  |  |  | 
COc1c(C(N)=O)ccc2c1nc(-c1c(C(=O)O)sc3cccc(Cl)c13)n2CCn1c(-c2c(C(=O)O)sc3cccc(Cl)c23)nc2c(OC)c(C(N)=O)ccc21 (single isomer, unassigned) [Example 22.1, 3,3′-(Ethane-1,2-diylbis(5-carbamoyl-4-methoxy-1H-benzo[d]imidazole-1,2-diyl))bis(4-chlorobenzo[b]thiophene-2-carboxylic acid)] | 0.256 | 0.13 |  |  | 37.7 | 45.5
CCOC(=O)c1sc2cccc(Cl)c2c1-c1nc2c(OC)c(C(N)=O)ccc2n1CCn1c(-c2c(C(=O)OCC)sc3cccc(Cl)c23)nc2c(OC)c(C(N)=O)ccc21 [Example 21, Diethyl 3,3′-(ethane-1,2-diylbis(5-carbamoyl-4-methoxy-1H-benzo[d]imidazole-1,2-diyl))bis(4-chlorobenzo[b]thiophene-2-carboxylate)] | 0.019 | 0.007 |  |  | 3.41 | 4.33
CCOC(=O)c1sc2cccc(C#N)c2c1-c1nc2cc(C(N)=O)ccc2n1CCn1c(-c2c(C(=O)OCC)sc3cccc(C#N)c23)nc2cc(C(N)=O)ccc21 [Example 16, Diethyl 3,3′-(ethane-1,2-diylbis(5-carbamoyl-1H-benzo[d]imidazole-1,2-diyl))bis(4-cyanobenzo[b]thiophene-2-carboxylate)] | > 40 | > 40 |  |  |  | 
NC(=O)c1ccc2c(c1)nc(-c1c(C(=O)O)sc3cccc(C(F)(F)F)c13)n2CCn1c(-c2c(C(=O)O)sc3cccc(C(F)(F)F)c23)nc2cc(C(N)=O)ccc21 (single isomer, unassigned) [Example 19.2, 3,3′-(Ethane-1,2-diylbis(5-carbamoyl-1H-benzo[d]imidazole-1,2-diyl))bis(4-(trifluoromethyl)benzo[b]thiophene-2-carboxylic acid)] | 2.6 | 3.66 | 2.74 | 12.26 |  | 
NC(=O)c1ccc2c(c1)nc(-c1c(C(=O)O)sc3cccc(C(F)(F)F)c13)n2CCn1c(-c2c(C(=O)O)sc3cccc(C(F)(F)F)c23)nc2cc(C(N)=O)ccc21 (single isomer, unassigned) [Example 19.1, 3,3′-(Ethane-1,2-diylbis(5-carbamoyl-1H-benzo[d]imidazole-1,2-diyl))bis(4-(trifluoromethyl)benzo[b]thiophene-2-carboxylic acid)] | 0.189 | 0.196 | 9.38 |  |  | 21.4
COc1c(C(N)=O)ccc2c1nc(-c1c(C(=O)O)sc3cccc(Cl)c13)n2CCn1c(-c2c(C(=O)O)sc3cccc(Cl)c23)nc2c(OC)c(C(N)=O)ccc21 (single isomer, unassigned) [Example 22.2, 3,3′-(Ethane-1,2-diylbis(5-carbamoyl-4-methoxy-1H-benzo[d]imidazole-1,2-diyl))bis(4-chlorobenzo[b]thiophene-2-carboxylic acid)] | 1.01 | 0.498 | 35.685 | 45.31 |  | 
